Laboratory results from the kinase profiling compilation of Christmann-Franck et al. (2016).

Experiments:
Assay in all cases: radiometric filter-binding kinase assay
[1] = target: PIM3 (human) (UniProt Q86V86); details: compound 100.0 µM; ATP 20 µM
[2] = target: PIM1 (human) (UniProt P11309); details: compound 100.0 µM; ATP 20 µM
[3] = target: TTK (human) (UniProt P33981); details: compound 100.0 µM; ATP 20 µM
[4] = target: MARK4 (human) (UniProt Q96L34); details: compound 100.0 µM; ATP 50 µM
[5] = system: AKT2 (human), P31751 [S474D]; details: compound 100.0 µM; ATP 50 µM
[6] = target: PTK6 (human) (UniProt Q13882); details: compound 100.0 µM; ATP 20 µM
[7] = system: LCK (mouse); details: compound 100.0 µM; ATP 50 µM; accession and sequence are those of the human protein
[8] = target: PHKG1 (human) (UniProt Q16816); details: compound 100.0 µM; ATP 50 µM
[9] = target: CaMK1 (human) (UniProt Q14012); details: compound 100.0 µM; ATP 50 µM
[10] = target: MAPKAPK2 (human) (UniProt P49137); details: compound 100.0 µM; ATP 20 µM
[11] = target: PKN2 (human) (UniProt Q16513); details: compound 100.0 µM; ATP 5 µM
[12] = target: ZAP70 (human) (UniProt P43403); details: compound 100.0 µM; ATP 5 µM
[13] = target: MST4 (human) (UniProt Q9P289); details: compound 100.0 µM; ATP 20 µM
[14] = target: CAMKK2 (human) (UniProt Q96RR4); details: compound 100.0 µM; ATP 20 µM
[15] = target: SYK (human) (UniProt P43405); details: compound 100.0 µM; ATP 20 µM
[16] = target: STK3 (human) (UniProt Q13188); details: compound 100.0 µM; ATP 20 µM
[17] = target: MAP2K1 (human) (UniProt Q02750); details: compound 100.0 µM; ATP 5 µM
[18] = target: NEK2 (human) (UniProt P51955); details: compound 100.0 µM; ATP 50 µM
[19] = target: RPS6KA1 KD1 KD2 (human) (UniProt Q15418); details: compound 100.0 µM; ATP 50 µM
[20] = target: EPHB2 (human) (UniProt P29323); details: compound 100.0 µM; ATP 20 µM
[21] = target: MKNK1 (human) (UniProt Q9BUB5); details: compound 100.0 µM; ATP 50 µM
[22] = target: TEK (human) (UniProt Q02763); details: compound 100.0 µM; ATP 20 µM
[23] = target: MARK3 (human) (UniProt P27448); details: compound 100.0 µM; ATP 5 µM
[24] = target: DYRK2 (human) (UniProt Q92630); details: compound 100.0 µM; ATP 50 µM
[25] = target: MAP3K5 (human) (UniProt Q99683); details: compound 100.0 µM; ATP 50 µM
[26] = target: MARK2 (human) (UniProt Q7KZI7); details: compound 100.0 µM; ATP 20 µM
[27] = target: AURKB (human) (UniProt Q96GD4); details: compound 100.0 µM; ATP 20 µM
[28] = target: MAP2K2 (human) (UniProt P36507); details: compound 100.0 µM; ATP 5 µM
[29] = target: MKNK2 (human) (UniProt Q9HBH9); details: compound 100.0 µM; ATP 50 µM
[30] = target: MARK1 (human) (UniProt Q9P0L2); details: compound 100.0 µM; ATP 20 µM
[31] = target: CDK2 CCNA2 (human) (UniProt P20248+P24941); details: compound 100.0 µM; ATP 20 µM
[32] = target: SRPK1 (human) (UniProt Q96SB4); details: compound 100.0 µM; ATP 50 µM
[33] = system: ROCK2 (rat); details: compound 100.0 µM; ATP 20 µM; accession and sequence are those of the human protein
[34] = target: STK33 (human) (UniProt Q9BYT3); details: compound 100.0 µM; ATP 50 µM
[35] = target: DYRK1A (human) (UniProt Q13627); details: compound 100.0 µM; ATP 50 µM
[36] = target: ABL1 (human) (UniProt P00519); details: compound 100.0 µM; ATP 5 µM
[37] = target: CSK (human) (UniProt P41240); details: compound 100.0 µM; ATP 20 µM
[38] = target: EPHB3 (human) (UniProt P54753); details: compound 100.0 µM; ATP 20 µM
[39] = target: FLT1 (human) (UniProt P17948); details: compound 100.0 µM; ATP 20 µM

Chain of PIM1 (human) (P11309 whole entry, looked up): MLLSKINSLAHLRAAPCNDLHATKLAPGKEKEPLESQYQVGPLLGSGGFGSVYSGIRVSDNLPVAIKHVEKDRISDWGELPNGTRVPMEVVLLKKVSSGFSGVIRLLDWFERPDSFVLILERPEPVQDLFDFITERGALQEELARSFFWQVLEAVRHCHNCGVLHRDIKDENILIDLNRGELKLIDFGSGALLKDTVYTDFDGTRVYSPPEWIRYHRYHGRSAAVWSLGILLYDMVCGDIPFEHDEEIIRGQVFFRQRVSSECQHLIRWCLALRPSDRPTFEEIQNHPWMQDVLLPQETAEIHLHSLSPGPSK
Chain of MARK4 (human) (Q96L34 whole entry, looked up): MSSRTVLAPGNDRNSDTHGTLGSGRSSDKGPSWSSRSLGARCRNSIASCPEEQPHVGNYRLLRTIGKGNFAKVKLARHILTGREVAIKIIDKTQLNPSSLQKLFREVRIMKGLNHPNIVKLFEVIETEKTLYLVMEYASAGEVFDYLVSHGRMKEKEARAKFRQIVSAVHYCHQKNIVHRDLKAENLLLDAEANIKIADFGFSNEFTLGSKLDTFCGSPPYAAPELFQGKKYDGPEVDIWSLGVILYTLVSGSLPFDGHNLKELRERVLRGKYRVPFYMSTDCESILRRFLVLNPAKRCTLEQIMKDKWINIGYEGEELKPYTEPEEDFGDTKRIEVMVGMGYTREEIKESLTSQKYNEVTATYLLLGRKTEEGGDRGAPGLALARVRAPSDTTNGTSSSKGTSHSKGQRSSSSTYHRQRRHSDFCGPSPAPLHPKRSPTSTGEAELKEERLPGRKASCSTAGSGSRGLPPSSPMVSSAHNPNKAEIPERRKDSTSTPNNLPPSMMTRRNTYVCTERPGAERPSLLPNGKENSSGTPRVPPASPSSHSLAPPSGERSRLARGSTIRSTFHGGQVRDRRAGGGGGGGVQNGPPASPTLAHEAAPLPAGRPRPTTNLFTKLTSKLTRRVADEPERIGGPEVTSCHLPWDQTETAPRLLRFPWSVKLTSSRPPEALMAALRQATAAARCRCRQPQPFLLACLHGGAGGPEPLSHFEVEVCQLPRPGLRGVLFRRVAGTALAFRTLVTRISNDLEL
Chain of MKNK2 (human) (Q9HBH9 whole entry, looked up): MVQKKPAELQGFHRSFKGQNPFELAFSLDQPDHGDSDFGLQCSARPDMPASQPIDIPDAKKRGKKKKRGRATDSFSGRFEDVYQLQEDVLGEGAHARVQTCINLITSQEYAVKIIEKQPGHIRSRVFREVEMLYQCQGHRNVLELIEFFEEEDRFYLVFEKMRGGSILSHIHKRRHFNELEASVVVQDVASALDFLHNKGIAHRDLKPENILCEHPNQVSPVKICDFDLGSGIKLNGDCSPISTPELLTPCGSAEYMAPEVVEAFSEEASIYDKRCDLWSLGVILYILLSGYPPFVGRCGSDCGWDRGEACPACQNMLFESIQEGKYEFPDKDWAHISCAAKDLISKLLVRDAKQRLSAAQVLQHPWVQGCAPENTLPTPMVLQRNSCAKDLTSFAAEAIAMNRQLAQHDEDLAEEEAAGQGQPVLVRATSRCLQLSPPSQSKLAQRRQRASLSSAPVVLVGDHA
Chain of TEK (human) (Q02763 whole entry, looked up): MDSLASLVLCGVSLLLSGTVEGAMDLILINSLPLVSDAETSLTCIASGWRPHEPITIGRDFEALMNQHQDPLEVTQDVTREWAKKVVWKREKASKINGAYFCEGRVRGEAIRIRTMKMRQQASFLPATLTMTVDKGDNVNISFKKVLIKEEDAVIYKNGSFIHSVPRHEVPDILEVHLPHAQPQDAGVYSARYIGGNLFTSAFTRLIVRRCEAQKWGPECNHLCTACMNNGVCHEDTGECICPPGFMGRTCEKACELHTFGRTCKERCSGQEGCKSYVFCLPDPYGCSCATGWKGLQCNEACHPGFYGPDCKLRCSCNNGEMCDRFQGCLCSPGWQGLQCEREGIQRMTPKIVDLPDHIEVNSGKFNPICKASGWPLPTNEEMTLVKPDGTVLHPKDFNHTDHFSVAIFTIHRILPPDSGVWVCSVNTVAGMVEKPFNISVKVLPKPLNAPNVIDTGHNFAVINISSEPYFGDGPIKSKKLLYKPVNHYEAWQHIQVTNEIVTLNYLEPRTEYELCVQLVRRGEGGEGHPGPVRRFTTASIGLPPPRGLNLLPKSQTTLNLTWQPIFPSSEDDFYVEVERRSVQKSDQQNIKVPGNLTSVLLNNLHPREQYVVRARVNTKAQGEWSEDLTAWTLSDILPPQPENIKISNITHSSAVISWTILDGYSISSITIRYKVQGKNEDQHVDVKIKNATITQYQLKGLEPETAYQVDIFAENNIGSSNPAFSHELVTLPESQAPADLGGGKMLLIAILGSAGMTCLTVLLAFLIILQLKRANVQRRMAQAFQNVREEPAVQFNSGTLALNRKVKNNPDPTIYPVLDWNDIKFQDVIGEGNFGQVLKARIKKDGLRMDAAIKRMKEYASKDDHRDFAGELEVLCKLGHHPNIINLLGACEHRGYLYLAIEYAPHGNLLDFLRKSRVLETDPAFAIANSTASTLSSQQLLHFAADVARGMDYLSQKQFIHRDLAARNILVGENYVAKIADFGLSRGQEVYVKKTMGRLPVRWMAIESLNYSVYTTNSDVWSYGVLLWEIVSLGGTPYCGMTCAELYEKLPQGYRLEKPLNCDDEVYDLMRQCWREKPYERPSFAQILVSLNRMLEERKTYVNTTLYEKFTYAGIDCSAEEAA
Chain of PKN2 (human) (Q16513 whole entry, looked up): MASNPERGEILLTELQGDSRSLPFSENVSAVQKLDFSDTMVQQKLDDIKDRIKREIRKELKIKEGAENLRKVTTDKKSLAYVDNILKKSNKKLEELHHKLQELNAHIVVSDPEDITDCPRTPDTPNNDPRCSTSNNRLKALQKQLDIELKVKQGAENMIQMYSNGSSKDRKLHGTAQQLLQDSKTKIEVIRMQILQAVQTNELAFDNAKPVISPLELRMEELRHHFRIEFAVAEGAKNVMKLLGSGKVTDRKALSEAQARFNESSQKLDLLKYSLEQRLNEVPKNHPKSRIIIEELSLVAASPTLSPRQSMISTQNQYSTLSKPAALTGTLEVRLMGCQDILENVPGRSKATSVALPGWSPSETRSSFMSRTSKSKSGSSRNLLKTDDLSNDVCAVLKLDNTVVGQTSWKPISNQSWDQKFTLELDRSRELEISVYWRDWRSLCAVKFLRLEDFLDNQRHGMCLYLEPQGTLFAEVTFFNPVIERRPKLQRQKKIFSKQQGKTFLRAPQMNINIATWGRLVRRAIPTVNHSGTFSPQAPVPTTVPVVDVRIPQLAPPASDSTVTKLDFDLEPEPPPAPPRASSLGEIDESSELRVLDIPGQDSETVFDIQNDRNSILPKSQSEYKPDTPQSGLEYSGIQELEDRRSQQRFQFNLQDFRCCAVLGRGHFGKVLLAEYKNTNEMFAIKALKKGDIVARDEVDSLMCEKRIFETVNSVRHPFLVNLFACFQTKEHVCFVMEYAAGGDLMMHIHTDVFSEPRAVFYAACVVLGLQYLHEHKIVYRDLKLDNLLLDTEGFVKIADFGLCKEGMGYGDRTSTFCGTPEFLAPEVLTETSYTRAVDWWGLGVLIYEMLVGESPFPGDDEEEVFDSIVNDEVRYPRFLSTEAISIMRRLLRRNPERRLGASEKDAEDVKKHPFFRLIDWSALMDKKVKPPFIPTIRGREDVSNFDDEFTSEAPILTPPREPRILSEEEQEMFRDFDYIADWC
Chain of MAP3K5 (human) (Q99683 whole entry, looked up): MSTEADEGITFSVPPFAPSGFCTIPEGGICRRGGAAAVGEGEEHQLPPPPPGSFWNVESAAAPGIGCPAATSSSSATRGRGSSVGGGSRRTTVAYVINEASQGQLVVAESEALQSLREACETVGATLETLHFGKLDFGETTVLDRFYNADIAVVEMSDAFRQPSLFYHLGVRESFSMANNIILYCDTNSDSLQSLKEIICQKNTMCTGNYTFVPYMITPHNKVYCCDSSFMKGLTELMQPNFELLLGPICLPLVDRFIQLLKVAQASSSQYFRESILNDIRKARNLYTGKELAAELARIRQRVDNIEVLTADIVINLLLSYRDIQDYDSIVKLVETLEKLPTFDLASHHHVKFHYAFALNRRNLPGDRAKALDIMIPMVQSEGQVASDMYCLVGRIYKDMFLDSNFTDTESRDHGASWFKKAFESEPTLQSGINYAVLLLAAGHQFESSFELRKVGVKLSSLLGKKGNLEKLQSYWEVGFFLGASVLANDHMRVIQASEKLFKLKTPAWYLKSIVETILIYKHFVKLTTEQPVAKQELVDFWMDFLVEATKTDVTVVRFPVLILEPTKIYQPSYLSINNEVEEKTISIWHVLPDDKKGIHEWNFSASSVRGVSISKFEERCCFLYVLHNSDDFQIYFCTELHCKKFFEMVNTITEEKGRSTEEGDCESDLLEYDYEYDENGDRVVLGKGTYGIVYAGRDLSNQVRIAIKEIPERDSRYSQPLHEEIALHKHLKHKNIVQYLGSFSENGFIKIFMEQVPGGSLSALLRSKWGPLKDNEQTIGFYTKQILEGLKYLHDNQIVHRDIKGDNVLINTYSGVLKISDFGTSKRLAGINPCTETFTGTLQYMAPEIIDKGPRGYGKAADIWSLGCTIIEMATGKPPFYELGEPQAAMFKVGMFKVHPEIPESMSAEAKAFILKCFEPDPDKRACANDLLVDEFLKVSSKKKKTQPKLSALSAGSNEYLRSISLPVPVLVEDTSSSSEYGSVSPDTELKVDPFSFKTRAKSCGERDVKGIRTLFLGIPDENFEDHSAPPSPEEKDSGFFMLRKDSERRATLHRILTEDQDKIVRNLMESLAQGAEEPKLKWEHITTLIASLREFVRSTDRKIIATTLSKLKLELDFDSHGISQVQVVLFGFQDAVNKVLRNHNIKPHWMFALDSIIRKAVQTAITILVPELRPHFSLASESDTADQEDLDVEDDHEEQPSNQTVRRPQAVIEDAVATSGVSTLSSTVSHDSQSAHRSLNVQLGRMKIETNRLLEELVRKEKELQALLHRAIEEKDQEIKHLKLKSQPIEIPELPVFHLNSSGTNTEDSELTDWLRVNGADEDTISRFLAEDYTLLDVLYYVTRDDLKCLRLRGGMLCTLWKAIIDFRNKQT

SMILES | inhibition [1] | inhibition [2] | inhibition [3] | inhibition [4] | inhibition [5] | inhibition [6] | inhibition [7] | inhibition [8] | inhibition [9] | inhibition [10] | inhibition [11] | inhibition [12] | inhibition [13] | inhibition [14] | inhibition [15] | inhibition [16] | inhibition [17] | inhibition [18] | inhibition [19] | inhibition [20] | also measured
O=C(Nc1cnc2[nH]ccn2c1=O)c1ccccc1 | 0% | 0% | 0% | 13% | 14% | 30% | 23% | 44% | 11% | 29% | 0% | 9% | 7% | 0% | 22% | 21% | 24% | 6% | 23% | 14% | inhibition [21]: 0%; inhibition [22]: 0%; inhibition [23]: 12%; inhibition [24]: 19%; inhibition [25]: 0%; inhibition [26]: 0%; inhibition [27]: 0%; inhibition [28]: 0%; inhibition [29]: 25%; inhibition [30]: 16%; inhibition [31]: 0%; inhibition [32]: 14%; inhibition [33]: 11%; inhibition [34]: 21%; inhibition [35]: 0%; inhibition [36]: 4%; inhibition [37]: 23%; inhibition [38]: 5%; inhibition [39]: 31%
CC(=O)Nc1nc2cnc(-c3ccccc3)cn2n1 | 30% | 13% | 4% | 0% | 22% | 1% | 29% | 68% | 17% | 7% | 13% | 16% | 16% | 41% | 31% | 0% | 34% | 25% | 24% | 4% | inhibition [21]: 53%; inhibition [22]: 11%; inhibition [23]: 38%; inhibition [24]: 30%; inhibition [25]: 25%; inhibition [26]: 18%; inhibition [27]: 61%; inhibition [28]: 6%; inhibition [29]: 35%; inhibition [30]: 6%; inhibition [31]: 34%; inhibition [32]: 25%; inhibition [33]: 25%; inhibition [34]: 5%; inhibition [35]: 43%; inhibition [36]: 48%; inhibition [37]: 29%; inhibition [38]: 32%; inhibition [39]: 69%
